{"source": "paper PMC2748117", "about": "(Journal of medicinal chemistry, 2008)", "key": {"KB cells [1]": {"system": "KB cells", "experiment": "Growth inhibition of KB tumor cells, with folate/nucleoside/AICA protection", "type": "cell-based, human"}, "human TS": {"system": "human TS", "details": "ref [22], [23]; cited from earlier work"}, "[2]": {"system": "human folylpolyglutamate synthetase", "details": "ref [23]; cited from earlier work"}, "KB cells [3]": {"system": "KB cells", "experiment": "Colony formation and reversibility assay with KB cells", "details": "0.1 to 100 nM drug, 10 days"}, "human DHFR": {"system": "human DHFR", "details": "ref [22], [23]; cited from earlier work"}, "CCRF-CEM leukemia cell": {"system": "CCRF-CEM leukemia cell", "details": "supraphysiologic folate; protected by hypoxanthine, not thymidine; ref [22], [23]; cited from earlier work"}, "KB cells [4]": {"system": "KB cells", "experiment": "Apoptosis assay, Annexin V-FITC flow cytometry", "type": "cell-based, human", "details": "1 µM, 24 h, Annexin V positive cells"}, "human RFC": {"system": "human RFC", "experiment": "Inhibition of RFC-mediated [3H]MTX uptake in PC43-10 cells", "type": "cell-based", "details": "unlabeled compound 10 µM, 0.5 µM [3H]MTX, 2 min, 37°C"}}}
{"smiles": "Nc1nc2[nH]c(CCCc3ccc(C(=O)N[C@@H](CCC(=O)O)C(=O)O)cc3)cc2c(=O)[nH]1", "note": "[Compound 2]", "values": [{"measurement": "Effect of thymidine on growth inhibitory activity toward KB cells", "setting": "KB cells [1]; 10 µM thymidine", "result": "no effect"}, {"measurement": "Effect of adenosine on growth inhibition of KB cells", "setting": "KB cells [1]; 60 µM adenosine", "result": "completely reversed"}, {"measurement": "Protection by AICA from growth inhibitory effects in KB cells", "setting": "KB cells [1]; 192 µM AICA", "result": "completely protected"}, {"measurement": "Inhibition of purified human TS", "setting": "human TS", "result": "poor inhibitors"}, {"measurement": "Substrate activity for polyglutamylation", "setting": "[2]", "result": "excellent substrates"}, {"measurement": "Inhibition of colony formation, continuous exposure", "setting": "KB cells [3]", "result": "more potent inhibitors than either compound 4 or MTX"}, {"measurement": "Inhibition of purified human DHFR", "setting": "human DHFR", "result": "poor inhibitors"}, {"measurement": "Inhibition of CCRF-CEM leukemia cell growth", "setting": "CCRF-CEM leukemia cell", "result": "modest inhibitors"}]}
{"smiles": "Nc1nc2[nH]c(CCCCc3ccc(C(=O)N[C@@H](CCC(=O)O)C(=O)O)cc3)cc2c(=O)[nH]1", "note": "[Compound 3, N-{4-[4-(2-Amino-4-oxo-4,7-dihydro-3H-pyrrolo[2,3-d]pyrimidin-6-yl)butyl]benzoyl}-L-glutamic Acid]", "values": [{"measurement": "Increase of IC50 between 2 nM and 20 nM LCV", "setting": "KB cells [1]; KB cells, folate-free media, 20 nM versus 2 nM leucovorin", "result": "approximately 3 fold"}, {"measurement": "Increase of IC50 at 40 nM LCV", "setting": "KB cells [1]; KB cells, folate-free media, 40 nM versus 2 nM leucovorin", "result": "~6", "unit": "fold"}, {"measurement": "Inhibition of purified human TS", "setting": "human TS", "result": "poor inhibitors"}, {"measurement": "Substrate activity for polyglutamylation", "setting": "[2]", "result": "excellent substrates"}, {"measurement": "Inhibition of colony formation, continuous exposure", "setting": "KB cells [3]", "result": "more potent inhibitors than either compound 4 or MTX"}, {"measurement": "Inhibition of purified human DHFR", "setting": "human DHFR", "result": "poor inhibitors"}, {"measurement": "Inhibition of CCRF-CEM leukemia cell growth", "setting": "CCRF-CEM leukemia cell", "result": "modest inhibitors"}]}
{"smiles": "COc1cccc2c1C(=O)c1c(O)c3c(c(O)c1C2=O)C[C@@](O)(C(C)=O)C[C@@H]3O[C@H]1C[C@H](N)[C@H](O)[C@H](C)O1", "note": "[daunorubicin]", "values": [{"measurement": "Apoptosis level relative to the antifolate drugs", "setting": "KB cells [4]", "result": 4, "unit": "factor"}]}
{"smiles": "Nc1nc(=O)c2nc(CNc3ccc(C(=O)N[C@@H](CCC(=O)O)C(=O)O)cc3)cnc2[nH]1", "note": "[folic acid]", "values": [{"measurement": "Inhibition of [3H]MTX uptake", "setting": "human RFC", "result": "< 20", "unit": "%"}]}
